Assay type in all cases: biochemical
The test system of assay [1] is enzyme mixture of purified glucoamylase from mushroom and purified α-amylase from barley. As to the kind of experiment: hydrolysis of raw corn starch by enzyme mixture, reducing sugar by DNSA. The note with it: for Relative Activity: 10 mM additive, raw corn starch, pH 5.3, 37° C., 20 min; for effect on hydrolysis of raw corn starch (in words): summary of Table 2. The procedure:
Enzyme mixture was also pre-incubated with 10 mM Fe^++, Cu^++, Ca^++, Mg^++, or disodium ethylenediamine-tetraacetic acid (EDTA). Thereafter, 40 μl of each pre-incubation solution was added to 15 mg raw corn starch, and the reaction mixture incubated at 37° C. for 20 minutes. The control reaction mixture contained substrate, enzyme, and buffer but no additional metal ions. The starch hydrolysis reaction was stopped by combining the reaction mixture with a solution containing 3,5 dinitrosalicylic acid (DNSA) and heating for 30 min at 85° C. The absorbance of the control and test samples was measured at 562 nm to monitor the amount of reducing sugar in each sample.

The target of assay [2] is α-amylase from Bacillus licheniformis (Bacillus licheniformis, UniProt P06278). As to the kind of experiment: hydrolysis of cooked dent corn starch with other additives. The note with it: for effect on rate of enzymatic hydrolysis (in words): 10 mM additive, cooked dent corn starch; for Relative Activity: Additive (10 mM), cooked dent corn starch 0.5%, pH 5.2, 37° C., 10 min. The procedure:
The α-amylase from Bacillus licheniformis was added to a sodium acetate buffer solution, pH 5.2, […], di-sodium EDTA, NH4^+, Sr^++, Na^+, K^+, Al^+++, or Ba^++ and 0.5% by weight cooked dent corn starch. The separate reaction mixtures were incubated at 37° C. for 10 minutes. The control reaction mixture contained enzyme, buffer, and starch but no additive. The starch hydrolysis reaction was stopped by combining the reaction mixture with a solution containing DNSA and heating for 30 min at 85° C. The absorbance of the control and test samples was measured at 562 nm to monitor the amount of reducing sugar in each sample.

In assay [3] the target is glucoamylase from Aspergillus Niger (Aspergillus niger, UniProt P69328). The description is as above. Particulars: for effect on rate of enzymatic hydrolysis (in words): 10 mM additive, cooked dent corn starch; for Relative Activity: Additive (10 mM), cooked dent corn starch 0.5%, pH 5.2, 37° C., 10 min. The protocol:
The glucoamylase from Aspergillus Niger was added to a sodium acetate buffer solution, pH 5.2, comprising no metal or 10 mM Fe^++, Mg^++, Li^+, Zn^++, Cu^++, Ca^++, di-sodium EDTA, NH4^+, Sr^++, Na^+, K^+, Al^+++, or Ba^++ and 0.5% by weight cooked dent corn starch. The separate reaction mixtures were incubated at 37° C. for 10 minutes. The control reaction mixture contained enzyme, buffer, and starch but no additive. The starch hydrolysis reaction was stopped by combining the reaction mixture with a solution containing DNSA and heating for 30 min at 85° C. The absorbance of the control and test samples was measured at 562 nm to monitor the amount of reducing sugar in each sample.

A further assay addresses β-amylase from barley (Hordeum vulgare, UniProt P16098). Described as above. Particulars: for effect on rate of enzymatic hydrolysis (in words): 10 mM additive, cooked dent corn starch; for Relative Activity: Additive (10 mM), cooked dent corn starch 0.5%, pH 5.2, 37° C., 10 min. The procedure:
[…] The separate reaction mixtures were incubated at 37° C. for 10 minutes. The control reaction mixture contained enzyme, buffer, and starch but no additive. The starch hydrolysis reaction was stopped by combining the reaction mixture with a solution containing DNSA and heating for 30 min at 85° C. The absorbance of the control and test samples was measured at […] to monitor the amount of reducing sugar in each sample.

Each structure is given as a SMILES string.

Sequence of glucoamylase from Aspergillus Niger (P69328 25-640): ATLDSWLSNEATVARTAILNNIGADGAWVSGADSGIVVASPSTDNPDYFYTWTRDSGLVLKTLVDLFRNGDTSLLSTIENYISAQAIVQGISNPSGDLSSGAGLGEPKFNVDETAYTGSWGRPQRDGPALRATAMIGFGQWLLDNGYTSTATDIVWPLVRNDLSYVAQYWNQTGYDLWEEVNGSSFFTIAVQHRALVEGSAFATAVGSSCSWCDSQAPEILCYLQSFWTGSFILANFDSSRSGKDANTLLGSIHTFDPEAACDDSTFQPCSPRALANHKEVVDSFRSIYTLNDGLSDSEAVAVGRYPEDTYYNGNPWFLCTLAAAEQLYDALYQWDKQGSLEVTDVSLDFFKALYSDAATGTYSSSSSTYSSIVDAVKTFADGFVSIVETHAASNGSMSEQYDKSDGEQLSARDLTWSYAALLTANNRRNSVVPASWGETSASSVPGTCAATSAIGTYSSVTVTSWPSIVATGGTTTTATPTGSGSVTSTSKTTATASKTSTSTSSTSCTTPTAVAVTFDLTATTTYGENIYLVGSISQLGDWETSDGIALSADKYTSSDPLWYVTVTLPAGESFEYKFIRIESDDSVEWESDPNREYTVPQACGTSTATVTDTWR
Sequence of α-amylase from Bacillus licheniformis (P06278 30-512): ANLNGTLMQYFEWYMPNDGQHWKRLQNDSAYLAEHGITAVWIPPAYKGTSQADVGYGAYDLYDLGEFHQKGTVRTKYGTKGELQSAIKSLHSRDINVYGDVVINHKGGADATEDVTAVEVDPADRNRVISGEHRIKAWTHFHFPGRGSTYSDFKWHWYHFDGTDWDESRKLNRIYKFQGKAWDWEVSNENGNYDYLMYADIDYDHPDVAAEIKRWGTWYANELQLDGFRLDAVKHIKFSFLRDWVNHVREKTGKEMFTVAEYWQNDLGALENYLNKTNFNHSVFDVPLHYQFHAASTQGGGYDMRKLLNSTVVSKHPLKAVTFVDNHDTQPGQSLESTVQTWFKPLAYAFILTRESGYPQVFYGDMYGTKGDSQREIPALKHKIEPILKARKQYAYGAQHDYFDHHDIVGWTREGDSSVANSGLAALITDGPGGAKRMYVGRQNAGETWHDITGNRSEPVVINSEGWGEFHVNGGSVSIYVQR
Sequence of β-amylase from barley (P16098 whole entry): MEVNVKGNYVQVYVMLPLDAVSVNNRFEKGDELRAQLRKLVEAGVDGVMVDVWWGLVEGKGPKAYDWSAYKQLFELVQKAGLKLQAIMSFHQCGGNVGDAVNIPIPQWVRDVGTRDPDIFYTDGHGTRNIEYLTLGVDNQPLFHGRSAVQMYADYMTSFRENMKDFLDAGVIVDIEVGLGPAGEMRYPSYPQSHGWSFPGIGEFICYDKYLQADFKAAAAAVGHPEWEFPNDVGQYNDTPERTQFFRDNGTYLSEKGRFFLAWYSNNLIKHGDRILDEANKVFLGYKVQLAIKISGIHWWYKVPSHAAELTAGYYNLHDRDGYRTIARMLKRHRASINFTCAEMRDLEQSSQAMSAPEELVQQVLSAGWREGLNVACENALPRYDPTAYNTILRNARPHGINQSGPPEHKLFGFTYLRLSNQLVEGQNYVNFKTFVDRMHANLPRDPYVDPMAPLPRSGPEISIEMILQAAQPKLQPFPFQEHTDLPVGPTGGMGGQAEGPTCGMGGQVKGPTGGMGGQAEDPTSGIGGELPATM

`[Cu+2]` [Cu^++]: the “Relative Activity” value in assay [1] amounted to 47.5%; in assay [2], 30.0%; in assay [3] it was 33.9%; on β-amylase from barley, 6.7%. In addition, the “effect on hydrolysis of raw corn starch (in words)” value in assay [1] is on record as “do not have a similar effect”. Also, the “effect on rate of enzymatic hydrolysis (in words)” value in assay [2] was “does not increase the enzymatic rate of hydrolysis”; in assay [3], “do not significantly increase the rate of enzymatic hydrolysis”; on β-amylase from barley, “do not significantly increase the rate of enzymatic hydrolysis”.
`[Mg+2]` [Mg^++, magnesium ion]: the “Relative Activity” value amounted to 92.4% in assay [1], 83.8% in assay [2], 96.0% in assay [3] and 110.8% at β-amylase from barley. Besides, in assay [1], the “effect on hydrolysis of raw corn starch (in words)” value is given as “do not have a similar effect”. For the same compound, the entries for the “effect on rate of enzymatic hydrolysis (in words)” value (in assay [2]; in assay [3]; on β-amylase from barley) were “does not increase the enzymatic rate of hydrolysis”, “do not significantly increase the rate of enzymatic hydrolysis” and “increase the rate of enzymatic hydrolysis”, respectively.

The record behind these values is patent US20080102497A1, “ENZYMATIC HYDROLYSIS OF STARCH” (priority 2006, published 2008).
